Reference: US20240343727A1, “PYRIDAZINONE OR PYRIDINONE COMPOUNDS, PREPARATION METHODS AND USES THEREOF” (InventisBio Co., Ltd., priority 2021, published 2024)

What follows are compounds tested against T1, PARP7 (Homo sapiens, UniProt Q7Z3E1) (assay: PARP7 TR-FRET assay (binding, displacement of biotinylated Probe A)). Details: 6 nM PARP7, 2 nM Probe A, 25° C., 30 min.
T1 sequence (Q7Z3E1 1-657): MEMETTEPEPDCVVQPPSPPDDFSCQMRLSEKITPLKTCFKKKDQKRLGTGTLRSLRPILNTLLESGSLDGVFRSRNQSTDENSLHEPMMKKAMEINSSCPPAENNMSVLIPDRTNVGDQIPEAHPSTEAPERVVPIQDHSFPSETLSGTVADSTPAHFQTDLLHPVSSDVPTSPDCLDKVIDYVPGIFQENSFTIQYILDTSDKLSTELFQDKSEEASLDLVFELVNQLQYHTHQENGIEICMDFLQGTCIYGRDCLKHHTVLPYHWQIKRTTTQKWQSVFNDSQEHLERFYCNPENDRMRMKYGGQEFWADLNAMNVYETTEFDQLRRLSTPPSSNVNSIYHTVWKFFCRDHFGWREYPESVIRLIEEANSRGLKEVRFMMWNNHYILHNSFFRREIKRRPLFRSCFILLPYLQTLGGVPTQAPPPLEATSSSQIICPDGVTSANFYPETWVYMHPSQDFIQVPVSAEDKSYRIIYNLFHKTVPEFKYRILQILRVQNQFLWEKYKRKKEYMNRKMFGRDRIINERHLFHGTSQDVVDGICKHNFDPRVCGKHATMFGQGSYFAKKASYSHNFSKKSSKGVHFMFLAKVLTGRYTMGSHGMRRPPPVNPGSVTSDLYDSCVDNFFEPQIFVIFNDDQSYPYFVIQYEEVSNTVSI
Outline: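 Compound displacement of biotinylated Probe A (2 nM) from PARP7 (6 nM) measured by TR-FRET in HEPES pH 8.0 buffer, 30 min at 25° C. Detection used ULight-anti 6xHis (4 nM) plus Eu-streptavidin (0.25 nM) for 30 min, reading the 665/615 nm ratio. % inhibition was taken against DMSO and no-enzyme wells, and IC50 from a Hill fit.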

Compound	IC50 [nM]
O=C(c1cccc(Oc2n[nH]c(=O)c(C(F)(F)F)c2N2CC3(CCC3)C2)c1)N1CCN(c2cnc(C(F)F)cn2)CC1 [Compound 189]	< 100
CO[C@H]1C[C@H](Nc2c(Oc3cccc(C(=O)N4CCN(c5ncc(C(F)(F)F)cn5)CC4)c3)n[nH]c(=O)c2C(F)(F)F)C1 [Compound 190]	< 100
CO[C@H]1C[C@@H](Nc2c(Oc3cccc(C(=O)N4CCN(c5ncc(C(F)(F)F)cn5)CC4)c3)n[nH]c(=O)c2C(F)(F)F)C1 [Compound 191]	< 100
COC[C@H]1C[C@@H]1Nc1c(Oc2cccc(C(=O)N3CCN(c4ncc(C(F)(F)F)cn4)CC3)c2)n[nH]c(=O)c1C(F)(F)F [Compound 198]	< 100
O=C(c1cccc(Oc2n[nH]c(=O)c(C(F)(F)F)c2NC2CC3(COC3)C2)c1)N1CCN(c2ncc(C(F)(F)F)cn2)CC1 [Compound 202]	< 100
O=C(c1cccc(Oc2n[nH]c(=O)c(C(F)(F)F)c2NCC2CCOCC2)c1)N1CCN(c2ncc(C(F)(F)F)cn2)CC1 [Compound 203]	< 100
O=C(c1cccc(Oc2n[nH]c(=O)c(C(F)(F)F)c2NCC2CC2)c1)N1CCN(c2ncc(C(F)(F)F)cn2)CC1 [Compound 204]	< 100
O=C(C[C@@H]1CN(c2n[nH]c(=O)c3ccc(N4CC(F)C4)cc23)CCO1)N1CCN(c2ncc(C(F)(F)F)cn2)CC1 [Compound 207]	< 100
O=C(c1cccc(Oc2n[nH]c(=O)c(C(F)(F)F)c2N2CC3(CCO3)C2)c1)N1CCN(c2ncc(C(F)(F)F)cn2)CC1 [Compound 212]	< 100
CC1(C#N)CN(c2c(Oc3cccc(C(=O)N4CCN(c5ncc(C(F)(F)F)cn5)CC4)c3)n[nH]c(=O)c2C(F)(F)F)C1 [Compound 213]	< 100
CCOC1CN(c2c(Oc3cccc(C(=O)N4CCN(c5ncc(C(F)(F)F)cn5)CC4)c3)n[nH]c(=O)c2C(F)(F)F)C1 [Compound 214]	< 100
O=C(c1cccc(Oc2n[nH]c(=O)c(C(F)(F)F)c2OCC2CCOCC2)c1)N1CCN(c2ncc(C(F)(F)F)cn2)CC1 [Compound 217]	< 100
O=C(c1cccc(Oc2n[nH]c(=O)c(C(F)(F)F)c2N2CC3(CCC3)C2)c1)N1CCN(c2ncc(C3CC3)cn2)CC1 [Compound 226]	< 100
O=C(c1cccc(Oc2n[nH]c(=O)c(C(F)(F)F)c2N2CC3(CCC3)C2)c1)N1CCN(c2nnc(C(F)(F)F)s2)CC1 [Compound 231]	< 100
O=C(c1cncc(Oc2n[nH]c(=O)c(C(F)(F)F)c2N2CC3(CCCO3)C2)c1)N1CCN(c2ncc(C(F)(F)F)cn2)CC1 [Compound 233]	< 100
O=C(c1cncc(Oc2n[nH]c(=O)c(C(F)(F)F)c2N2CC3(CCCO3)C2)c1)N1CCN(c2ncc(Cl)cn2)CC1 [Compound 234]	< 100
N#Cc1ccc(N2CCN(C(=O)c3cncc(Oc4n[nH]c(=O)c(C(F)(F)F)c4N4CC5(C4)CC(F)(F)C5)c3)CC2)nc1 [Compound 237]	< 100
O=C(c1cncc(Oc2n[nH]c(=O)c(C(F)(F)F)c2N2CC3(C2)CC(F)(F)C3)c1)N1CCN(c2ncc(C(F)(F)F)cn2)CC1 [Compound 238]	< 100
COC1CN(c2c(Oc3cncc(C(=O)N4CCN(c5ncc(C(F)(F)F)cn5)CC4)c3)n[nH]c(=O)c2C(F)(F)F)C1 [Compound 239]	< 100
O=C(CC1CN(c2n[nH]c(=O)c3c(F)cc(Cl)cc23)CCO1)N1CCN(c2ncc(C(F)(F)F)cn2)CC1 (stereo not shown) [Compound 242]	< 100
N#Cc1ccc2c(N3CCOC(CC(=O)N4CCN(c5ncc(C(F)(F)F)cn5)CC4)C3)n[nH]c(=O)c2c1 (stereo not shown) [Compound 243]	100 to 1000
O=C(c1cccc(Oc2n[nH]c(=O)c(C(F)(F)F)c2N2CC3(CCO3)C2)c1)N1CCN(c2ncc(C(F)(F)F)cn2)C2(CC2)C1 [Compound 253]	< 100
C[C@H]1CN(C(=O)c2cccc(Oc3n[nH]c(=O)c(C(F)(F)F)c3N3CC4(CCO4)C3)c2)CCN1c1ncc(C(F)(F)F)cn1 [Compound 254]	< 100
C[C@H]1CN(c2ncc(C(F)(F)F)cn2)CCN1C(=O)c1cccc(Oc2n[nH]c(=O)c(C(F)(F)F)c2N2CC3(CCO3)C2)c1 [Compound 255]	< 100
O=C(c1cccc(Oc2n[nH]c(=O)c(C(F)(F)F)c2N2CC3(CCO3)C2)c1)N1CC2CCC(C1)N2c1ncc(C(F)(F)F)cn1 [Compound 257]	< 100
N#Cc1cnc(N2CCN(C(=O)c3cc(Oc4n[nH]c(=O)c(C(F)(F)F)c4N4CC5(CCC5)C4)ccn3)CC2)nc1 [Compound 273]	< 100

Compound	IC50 [nM]
N#Cc1ccc(N2CCN(C(=O)c3cc(Oc4n[nH]c(=O)c(C(F)(F)F)c4N4CC5(CCC5)C4)ccn3)CC2)nc1 [Compound 274]	< 100
C#Cc1cnc(N2CCN(C(=O)c3cccc(Oc4n[nH]c(=O)c(C(F)(F)F)c4N4CC5(CCCO5)C4)c3)CC2)nc1 [Compound 275]	< 100
O=C(c1cccc(Oc2n[nH]c(=O)c(C(F)(F)F)c2N2CC3(CCC3)C2)c1)N1CCN(c2ncc(OC(F)(F)F)cn2)CC1 [Compound 276]	< 100
O=C(c1cncc(Oc2n[nH]c(=O)c(C(F)(F)F)c2N2CC3(C2)CC(F)(F)C3)c1)N1CCN(c2ncc(Cl)cn2)CC1 [Compound 277]	< 100
O=C(c1cncc(Oc2n[nH]c(=O)c(C(F)(F)F)c2N2CC(C3CC3)C2)c1)N1CCN(c2ncc(C(F)(F)F)cn2)CC1 [Compound 278]	< 100
O=C(c1cncc(Oc2n[nH]c(=O)c(C(F)(F)F)c2N2CC(C3CC3)C2)c1)N1CCN(c2ncc(C(F)F)cn2)CC1 [Compound 279]	< 100
C#Cc1cnc(N2CCN(C(=O)c3cncc(Oc4n[nH]c(=O)c(C(F)(F)F)c4N4CC5(C4)CC(F)(F)C5)c3)CC2)nc1 [Compound 299]	< 100
C#Cc1cnc(N2CCN(C(=O)c3cccc(Oc4n[nH]c(=O)c(C(F)(F)F)c4N4CC5(COC5)C4)c3)CC2)nc1 [Compound 302]	< 100
N#Cc1cnc(N2CCN(C(=O)c3cccc(Oc4n[nH]c(=O)c(C(F)(F)F)c4N4CC(C5CC5)C4)c3)CC2)nc1 [Compound 303]	< 100
O=C(c1cc(Oc2n[nH]c(=O)c(C(F)(F)F)c2N2CC3(C2)CC(F)(F)C3)ccn1)N1CCN(c2ncc(C(F)(F)F)cn2)CC1 [Compound 304]	< 100
N#Cc1cnc(N2CCN(C(=O)c3cc(Oc4n[nH]c(=O)c(C(F)(F)F)c4N4CC5(C4)CC(F)(F)C5)ccn3)CC2)nc1 [Compound 305]	< 100
N#Cc1ccc(N2CCN(C(=O)c3cc(Oc4n[nH]c(=O)c(C(F)(F)F)c4N4CC5(C4)CC(F)(F)C5)ccn3)CC2)nc1 [Compound 306]	< 100
O=C(c1cc(Oc2n[nH]c(=O)c(C(F)(F)F)c2N2CC3(C2)CC(F)(F)C3)ccn1)N1CCN(c2ncc(Cl)cn2)CC1 [Compound 307]	< 100
O=C(c1cc(Oc2n[nH]c(=O)c(C(F)(F)F)c2N2CC3(C2)CC(F)(F)C3)ccn1)N1CCN(c2ncc(C3CC3)cn2)CC1 [Compound 308]	< 100
O=C(c1cncc(Oc2n[nH]c(=O)c(C(F)(F)F)c2N2CC3(C2)CC(F)(F)C3)c1)N1CCN(c2ncc(C3CC3)cn2)CC1 [Compound 313]	< 100
C[C@@H]1CN(C(=O)c2cncc(Oc3n[nH]c(=O)c(C(F)(F)F)c3N3CC4(C3)CC(F)(F)C4)c2)CCN1c1ncc(C(F)(F)F)cn1 [Compound 314]	< 100
COC1CN(c2c(Oc3ccnc(C(=O)N4CCN(c5ncc(C(F)(F)F)cn5)CC4)c3)n[nH]c(=O)c2C(F)(F)F)C1 [Compound 315]	< 100
C#Cc1cnc(N2CCN(C(=O)c3cc(Oc4n[nH]c(=O)c(C(F)(F)F)c4N4CC5(C4)CC(F)(F)C5)ccn3)CC2)nc1 [Compound 317]	< 100
C[C@@H]1CN(C(=O)c2cc(Oc3n[nH]c(=O)c(C(F)(F)F)c3N3CC4(C3)CC(F)(F)C4)ccn2)CCN1c1ncc(C(F)(F)F)cn1 [Compound 318]	< 100
C[C@@H]1CN(C(=O)c2cc(Oc3n[nH]c(=O)c(C(F)(F)F)c3N3CC4(C3)CC(F)(F)C4)ccn2)CCN1c1ncc(Cl)cn1 [Compound 319]	< 100
CCOC1CN(c2c(Oc3ccnc(C(=O)N4CCN(c5ncc(C(F)(F)F)cn5)CC4)c3)n[nH]c(=O)c2C(F)(F)F)C1 [Compound 320]	< 100
CCOC1CN(c2c(Oc3cncc(C(=O)N4CCN(c5ncc(C(F)(F)F)cn5)CC4)c3)n[nH]c(=O)c2C(F)(F)F)C1 [Compound 322]	100 to 1000
N#Cc1ccc(N2CCN(C(=O)c3cccc(Oc4n[nH]c(=O)c(C(F)(F)F)c4N4CC5(C4)CC(F)(F)C5)c3)CC2)nc1 [Compound 333]	< 100
O=C(c1cncc(Oc2n[nH]c(=O)c(C(F)(F)F)c2N2CC3(C2)CC(F)(F)C3)c1)N1CCN(c2cnc(C(F)(F)F)cn2)CC1 [Compound 334]	< 100
O=C(c1cncc(Oc2n[nH]c(=O)c(C(F)(F)F)c2N2CC3(C2)CC(F)(F)C3)c1)N1CCN(c2ccc(C(F)(F)F)cn2)CC1 [Compound 335]	< 100
C[C@@H]1CN(C(=O)c2cc(Oc3n[nH]c(=O)c(C(F)(F)F)c3N3CC(O)C3)ccn2)CCN1c1ncc(C(F)(F)F)cn1 [Compound 340]	< 100
